# Data taken from paper PMC4467156, “A new chemical inhibitor of angiogenesis and tumorigenesis that targets the VEGF signaling pathway upstream of Ras” (Oncotarget, 2015).
# What was measured:
# HUVEC cells [1] = assay: Scratch assay on HUVEC with or without mitomycin C; format: cell-based, human; details: HUVEC, 25 μM COB223, mitomycin C 2 μg/mL pretreatment, 24 h and 48 h
# Method: Confluent cell monolayers were wounded with a plastic pipet tip, washed gently with phosphate buffer saline (PBS) and treated with complete media containing molecules, as indicated. Cells were placed at 37°C into the incubator and photographed at indicated times. Quantitation of closure of the monolayer was performed using the NIH Image J program (http://rsbweb.nih.gov/ij/). Results are expressed as percentage of wound closure at t = 24 h as compared to the initial wound at t = 0 h. […]
# www.impactjournals.com/oncotarget/ Oncotarget, Supplementary Materials 2015 […]
# Figure S1: Effect of COB223 on endothelial cell migration. (A) Scratch assay: Confluent HUVEC cells were pretreated for 24 h without (CTL) or with 2 μg/mL of mitomycin C before a wound was made in the cell monolayer. After wounding, cells were incubated at 37°C in the absence or the presence of 25 μM COB223. Wound closure was measured after 24 h and 48 h of incubation as described in Material and Methods. […]
# (B) Boyden chamber assay: The technique is described in Material and Methods. We measured the passage of fluorescently labeled HUVEC cells through a 3 μm-porous membrane in response to fetal calf serum used as a chemo-attractant. […] The Figure represents the mean fluorescence ± SD of duplicate determinations after 24 h or 48h of incubation from two independent experiments. […]
# PKCβII = PKCβII (Homo sapiens, UniProt P05771); assay: In vitro kinase assay PKCβII; format: biochemical; details: concentrations up to 50 μM
# Method: (§1) We first wondered whether COB223 required to be internalized to exert its biological effect. For this, we synthesized a covalent complex between BSA and COB223 and purified it. […] In vitro kinase assays were performed with a panel of purified protein-kinases involved in mitogenic signaling, including VEGFR2, FGFR1, FGFR2, PDGFRß, Met, Raf, MEK1, ERK1, ERK2, PKCα, PKCβI, PKCβII, PKCζ as indicated in Table 2. […] We then analyzed the effect of COB223 on VEGF-induced phosphorylations of VEGFR2, MEK and ERK1/2 (Figure 9). […] (Figure 9A, 9B). […] It was also specific of the p42/p44 MAP kinase pathway as activation of p38 MAP kinase phosphorylation in HUVEC cells by VEGF or serum was unaffected by COB223 (data not shown). The activation of src phosphorylation by VEGF in HUVECs was also unaffected by COB223 (data not shown).
# Raf = assay: In vitro kinase assay Raf; format: biochemical; details: concentrations up to 50 μM
# Method: as §1
# HMVECd cells = assay: 3H-thymidine incorporation, HMVECd; format: cell-based, human; details: 24 h
# Method: (§2) Cells were treated with molecules in complete medium. After 22 h, 1 μCi per well H^3 thymidine was added for 2 hours. Cells are then fixed by 10% trichloroacetic acid and harvested with 0.2N NaOH, 1% SDS. Radioactivity was measured in a beta counter.
# LLC/2 cells = assay: Cell viability WST-1, LLC/2; format: cell-based; details: confluent LLC/2, 24 h at 37°C
# Method: Once they had reached confluency, cells were kept for 24 hours in medium supplemented with 0.5% FCS (LLC/2 and 3T3 cells) or 2.5% FCS (HUVEC and HMVEC-d cells), in the presence of COB223 at different concentrations. WST-1 assay (Roche Diagnostic, Meylan, France) was then performed according to the manufacturer's instructions.
# HUVEC cells [2] = assay: Binding of 125I-VEGF-A121 to HUVEC cells; parameters: species or system human; details: data not shown
# HUVEC cells [3] = assay: 3H-thymidine incorporation, HUVEC; format: cell-based, human; details: HUVEC, 24 h
# Method: as §2
# ERK phosphorylation = ERK phosphorylation in CCL-39 fibroblasts with estrogen-responsive active Raf; format: cell-based; details: estradiol 3 h, 25 μM COB223 15 or 30 min
# Method: Figure 11 Effect of COB223 on mitogenic or oncogenic activation of the Ras /MEK/ERK signaling pathway (A) Serum-starved HUVEC cells were incubated for 15 min in the presence of 10 ng/mL VEGF-A and in the absence or the presence of 25 μM COB223. The phosphorylations of PLCγ on tyrosine 783, of Raf on serine 338 or on serine 259 and of ERK1/2 were then analyzed by Western blot analysis of the cell lysates as described in Material and Methods. Western blots for total PLCγ, Raf and ERK1/2 were used as loading controls. (B) MCF10A cells overexpressing an oncogenic version of Ras (MCF10A-RasG12V) were treated for the indicated periods of time by 25 μM COB223. Total ERK1/2 and phospho-ERK1/2 were then visualized by Western blotting of the cell extracts. Non-treated regular MCF10A cells were analyzed as a control (first lane). (C) CCL-39 fibroblasts expressing a constitutively active Raf in an estrogen-responsive manner were stimulated for 3 h with estradiol and treated for 15 or 30 min with 25 μM COB223. Total ERK1/2 and phospho-ERK1/2 were then visualized by Western blotting of the cell extracts. Non-treated cells were analyzed as a control (left lanes).
# Sequence of PKCβII (P05771 1-673 isoform P05771-2): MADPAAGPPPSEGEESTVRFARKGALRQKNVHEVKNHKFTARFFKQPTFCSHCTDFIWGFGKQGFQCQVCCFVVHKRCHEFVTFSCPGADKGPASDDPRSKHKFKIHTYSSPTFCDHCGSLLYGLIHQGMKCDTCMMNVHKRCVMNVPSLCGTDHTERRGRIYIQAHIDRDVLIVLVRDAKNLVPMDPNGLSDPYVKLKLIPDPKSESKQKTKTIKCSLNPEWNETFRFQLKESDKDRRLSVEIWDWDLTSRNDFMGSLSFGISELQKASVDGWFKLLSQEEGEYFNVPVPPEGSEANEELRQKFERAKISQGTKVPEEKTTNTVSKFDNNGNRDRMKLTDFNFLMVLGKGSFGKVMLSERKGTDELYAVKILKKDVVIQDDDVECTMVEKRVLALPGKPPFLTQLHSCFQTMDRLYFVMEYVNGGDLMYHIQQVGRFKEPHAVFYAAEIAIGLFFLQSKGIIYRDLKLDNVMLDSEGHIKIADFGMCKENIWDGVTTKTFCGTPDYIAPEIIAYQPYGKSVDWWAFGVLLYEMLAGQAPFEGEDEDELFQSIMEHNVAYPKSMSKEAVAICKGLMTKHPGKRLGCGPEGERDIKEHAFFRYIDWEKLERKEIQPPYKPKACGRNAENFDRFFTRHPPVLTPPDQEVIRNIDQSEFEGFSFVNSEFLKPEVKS
smiles,measurement,setting,value
"CN(C)c1cccc2c(S(=O)(=O)NCCCN3CCN(CCCNC(=O)OC(C)(C)C)CC3)cccc12 [COB223, tert-Butyl 3-(4-(3-(5-(dimethylamino)naphthalene-1-sulfonamido)propyl)piperazin-1-yl) propylcarbamate]",endothelial cell wound closure in the presence of mitomycin C,HUVEC cells [1],still inhibited
same,kinase inhibition,PKCβII,None of them was inhibited
same,kinase inhibition,Raf,None of them was inhibited
same,concentrations inhibiting thymidine incorporation,HMVECd cells,above 5 μM
same,cytotoxic concentrations,LLC/2 cells,> 50 µM
same,binding of 125I-VEGF-A121 to HUVEC cells,HUVEC cells [2],unaffected
same,concentrations inhibiting thymidine incorporation,HUVEC cells [3],above 5 μM
same,ERK phosphorylation induced by estrogen,ERK phosphorylation,did not inhibit
